Results taken from US20200278355A1, “CONJUGATED PROTEINS AND USES THEREOF” (THE SCRIPPS RESEARCH INSTITUTE, priority 2017, published 2020).

Experiments:
ALDH1A1 = molecular target: T1, ALDH1A1 (Homo sapiens, UniProt P00352); test: ABPP-SILAC BPK-29yne competition in H460 cells: ALDH1A1; type: cell-based; settings: 20 μM
T1 construct: Isotopically labeled H460 cell lines were generated as described above; endogenous in cells; host or cells: H460 (SILAC-labelled)
Procedure: (§1) Isotopically labeled H460 cell lines were generated as described above. Light and heavy cells were treated with compounds (20 μM) or DMSO, respectively, for 3 h, followed by labeling with the BPK-29yne (5 μM) for 30 min. Cells were washed once ice-cold PBS and lysed in 1% Triton 100-X dissolved in PBS with protease inhibitors (Sigma) by sonication. Lysate was adjusted to 1.5 mg ml^−1 in 500 μL. Samples were conjugated by CuAAC to Biotin-PEG4-azide (5 μL of 10 mM stocks in DMSO, final concentration=100 μM). CuAAC “click” mix contained TCEP, TBTA ligand and CuSO4 as detailed for isoTOP-ABPP sample preparation. Samples were further processed as detailed in: isoTOP-ABPP streptavidin enrichment and isoTOP-ABPP trypsin TEV digestion with the following exception: after overnight incubation at 37° C. with trypsin, tryptic digests were separated from the beads with Micro Bio-Spin columns (Bio-Rad) by centrifugation (1,000×g, 1 min). Beads were rinsed once with water (200 μL) and combined with tryptic digests. […]
(§2) The MS2 spectra data were extracted and searched using RAW Convertor and ProLuCID algorithm as described in isoTOP-ABPP peptide and protein quantification. […] Ratios of heavy/light (DMSO/test compound) peaks were calculated using in-house CIMAGE software. […] The mean R values and standard deviation for multiple biological experiments were calculated from the average ratios from each replicate. […]

TXNDC12 = molecular target: T2, TXNDC12 (Homo sapiens, UniProt O95881); test: ABPP-SILAC BPK-29yne competition in H460 cells: TXNDC12; type: cell-based; settings: 20 μM
T2 construct: endogenous in cells; host or cells: H460
T2 sequence (O95881 27-172): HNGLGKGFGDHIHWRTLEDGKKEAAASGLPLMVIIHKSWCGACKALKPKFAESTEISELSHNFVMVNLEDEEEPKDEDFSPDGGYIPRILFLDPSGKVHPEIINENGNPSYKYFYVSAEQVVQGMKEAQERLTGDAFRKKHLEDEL
Procedure: as §1, §2

KEAP1-WT NSCLC cells = test: Anchorage-independent growth, KEAP1-WT NSCLC cells; type: cell-based, human; settings: 5 μM
Excerpt: Based on its in situ activity (FIG. 6D and FIG. 12A, 12G) and selectivity (FIGS. 6A, 6B), BPK-29 was chosen for additional biological studies. […] Exogenous expression of […] the growth inhibition caused by BPK-29.

NR0B1 = molecular target: T3, NR0B1 (Homo sapiens, UniProt P51843); test: ABPP-SILAC BPK-29yne competition in H460 cells: NR0B1; type: cell-based; settings: 20 μM
T3 construct: H460 cells or H460 cells expressing luciferase in a 10 cm plate were incubated with indicated compounds; endogenous in cells; host or cells: H460 (NSCLC, KEAP1-mutant)
T3 sequence (P51843 1-470): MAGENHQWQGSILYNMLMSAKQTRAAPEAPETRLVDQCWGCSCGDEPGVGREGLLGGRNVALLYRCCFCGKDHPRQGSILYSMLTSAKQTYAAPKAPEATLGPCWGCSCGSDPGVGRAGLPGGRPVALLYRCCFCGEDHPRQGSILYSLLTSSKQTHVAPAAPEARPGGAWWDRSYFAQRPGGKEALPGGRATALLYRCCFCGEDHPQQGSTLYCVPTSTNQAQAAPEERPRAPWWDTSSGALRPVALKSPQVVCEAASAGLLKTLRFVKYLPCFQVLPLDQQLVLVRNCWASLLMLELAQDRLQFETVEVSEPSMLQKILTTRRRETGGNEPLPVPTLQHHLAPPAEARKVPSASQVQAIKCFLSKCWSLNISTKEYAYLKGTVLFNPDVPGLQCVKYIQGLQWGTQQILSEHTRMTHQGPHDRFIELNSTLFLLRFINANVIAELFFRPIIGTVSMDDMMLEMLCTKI
Procedure: as §1, §2

SCP2 = molecular target: T4, SCP2 (Homo sapiens, UniProt P22307); test: ABPP-SILAC BPK-29yne competition in H460 cells: SCP2; type: cell-based; settings: 20 μM
T4 construct: H460 cells or H460 cells expressing luciferase in a 10 cm plate were incubated with indicated compounds; endogenous in cells; host or cells: H460
T4 sequence (P22307 whole entry): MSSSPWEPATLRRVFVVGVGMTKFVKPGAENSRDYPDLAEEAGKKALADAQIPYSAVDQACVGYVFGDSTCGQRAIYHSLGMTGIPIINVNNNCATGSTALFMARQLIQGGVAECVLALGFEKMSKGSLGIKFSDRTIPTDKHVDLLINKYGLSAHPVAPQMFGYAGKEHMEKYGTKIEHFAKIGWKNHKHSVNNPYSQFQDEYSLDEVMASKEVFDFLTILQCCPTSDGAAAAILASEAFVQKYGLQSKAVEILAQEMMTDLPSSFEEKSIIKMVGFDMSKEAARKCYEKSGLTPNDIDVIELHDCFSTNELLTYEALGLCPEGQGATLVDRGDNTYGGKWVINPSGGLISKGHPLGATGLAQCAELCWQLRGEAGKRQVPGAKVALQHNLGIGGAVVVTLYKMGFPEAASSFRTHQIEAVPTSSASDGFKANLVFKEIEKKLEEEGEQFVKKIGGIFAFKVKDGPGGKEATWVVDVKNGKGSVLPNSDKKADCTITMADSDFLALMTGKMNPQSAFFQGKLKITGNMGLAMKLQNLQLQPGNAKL
Procedure: as §1, §2

SELO = molecular target: T5, SELO (Homo sapiens, UniProt Q9BVL4); test: ABPP-SILAC BPK-29yne competition in H460 cells: SELO; type: cell-based; settings: 20 μM
T5 construct: Isotopically labeled H460 cell lines were generated as described above; endogenous in cells; host or cells: H460 (SILAC-labelled)
T5 sequence (Q9BVL4 116-669): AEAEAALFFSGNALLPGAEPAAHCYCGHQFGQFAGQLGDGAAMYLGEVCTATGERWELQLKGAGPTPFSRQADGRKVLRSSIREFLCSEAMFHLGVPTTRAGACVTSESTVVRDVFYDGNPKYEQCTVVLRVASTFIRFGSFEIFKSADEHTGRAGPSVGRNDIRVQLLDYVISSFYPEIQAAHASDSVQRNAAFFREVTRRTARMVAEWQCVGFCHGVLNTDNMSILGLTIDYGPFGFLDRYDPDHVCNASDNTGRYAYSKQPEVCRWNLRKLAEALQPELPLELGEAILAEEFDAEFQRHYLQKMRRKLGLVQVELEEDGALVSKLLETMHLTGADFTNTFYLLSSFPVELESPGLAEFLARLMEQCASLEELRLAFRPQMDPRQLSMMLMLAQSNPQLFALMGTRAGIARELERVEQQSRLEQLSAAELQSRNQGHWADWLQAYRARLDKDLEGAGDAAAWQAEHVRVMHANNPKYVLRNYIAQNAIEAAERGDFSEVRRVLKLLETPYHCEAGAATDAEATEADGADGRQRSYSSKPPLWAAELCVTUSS
Procedure: as §1, §2

T1 sequence (P00352 whole entry): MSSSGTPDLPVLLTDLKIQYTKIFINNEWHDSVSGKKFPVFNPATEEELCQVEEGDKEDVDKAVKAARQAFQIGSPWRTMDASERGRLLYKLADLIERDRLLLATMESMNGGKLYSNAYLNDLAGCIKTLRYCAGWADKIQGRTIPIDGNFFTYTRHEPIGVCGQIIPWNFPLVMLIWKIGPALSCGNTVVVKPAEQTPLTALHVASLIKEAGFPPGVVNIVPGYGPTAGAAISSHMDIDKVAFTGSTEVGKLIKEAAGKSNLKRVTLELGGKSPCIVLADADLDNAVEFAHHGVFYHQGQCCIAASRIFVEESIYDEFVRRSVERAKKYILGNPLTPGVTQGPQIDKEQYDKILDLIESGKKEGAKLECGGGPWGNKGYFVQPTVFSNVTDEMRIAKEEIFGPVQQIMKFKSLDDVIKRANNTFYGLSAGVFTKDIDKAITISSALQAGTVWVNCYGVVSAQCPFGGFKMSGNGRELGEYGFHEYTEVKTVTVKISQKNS

O=C(c1ccc(N2CCOCC2)cc1)N1CCCC(N(Cc2ccccc2)C(=O)CCl)CC1 (stereo not drawn) [BPK-29, N-benzyl-2-chloro-N-(1-(4-morpholinobenzoyl)azepan-4-yl)acetamide]
BPK-29-competed BPK-29yne analysis (ALDH1A1): Yes (Competed defined as showing R value ≥ 2.5 at 20 μM of test compound)
BPK-29-competed BPK-29yne analysis (TXNDC12): Yes (Competed defined as showing R value ≥ 2.5 at 20 μM of test compound)
anchorage-independent growth (KEAP1-WT NSCLC cells): minimally affected
BPK-29-competed BPK-29yne analysis (NR0B1): Yes (Competed defined as showing R value ≥ 2.5 at 20 μM of test compound)
BPK-29-competed BPK-29yne analysis (SCP2): Yes (Competed defined as showing R value ≥ 2.5 at 20 μM of test compound)
BPK-29-competed BPK-29yne analysis (SELO): Yes (Competed defined as showing R value ≥ 2.5 at 20 μM of test compound)
